Assay results from ChEMBL document CHEMBL1909046, “DrugMatrix in vitro pharmacology data”.

Key:
[1] = target: T1, Type-2 angiotensin II receptor (Homo sapiens, UniProt P50052); type: cell-based; details: cho-k1; further: in other assays of this panel Not Active means under 50% inhibition at 10 µM
T1 sequence (P50052 whole entry): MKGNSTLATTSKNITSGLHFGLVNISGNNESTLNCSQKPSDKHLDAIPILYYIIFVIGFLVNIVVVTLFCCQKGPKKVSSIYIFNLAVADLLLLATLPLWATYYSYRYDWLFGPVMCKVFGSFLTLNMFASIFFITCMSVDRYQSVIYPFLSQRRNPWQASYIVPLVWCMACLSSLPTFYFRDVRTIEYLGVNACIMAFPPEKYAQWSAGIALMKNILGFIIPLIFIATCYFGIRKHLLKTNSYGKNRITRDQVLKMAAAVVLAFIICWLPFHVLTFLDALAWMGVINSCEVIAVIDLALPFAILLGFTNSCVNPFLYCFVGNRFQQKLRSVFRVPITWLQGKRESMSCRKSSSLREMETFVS

[2] = target: 5-hydroxytryptamine receptor 2B (Homo sapiens, UniProt P41595); type: cell membranes, CHO-K1, Membrane; details: cho-k1; further: in other assays of this panel Not Active means under 50% inhibition at 10 µM
5-hydroxytryptamine receptor 2B, sequence (P41595 whole entry): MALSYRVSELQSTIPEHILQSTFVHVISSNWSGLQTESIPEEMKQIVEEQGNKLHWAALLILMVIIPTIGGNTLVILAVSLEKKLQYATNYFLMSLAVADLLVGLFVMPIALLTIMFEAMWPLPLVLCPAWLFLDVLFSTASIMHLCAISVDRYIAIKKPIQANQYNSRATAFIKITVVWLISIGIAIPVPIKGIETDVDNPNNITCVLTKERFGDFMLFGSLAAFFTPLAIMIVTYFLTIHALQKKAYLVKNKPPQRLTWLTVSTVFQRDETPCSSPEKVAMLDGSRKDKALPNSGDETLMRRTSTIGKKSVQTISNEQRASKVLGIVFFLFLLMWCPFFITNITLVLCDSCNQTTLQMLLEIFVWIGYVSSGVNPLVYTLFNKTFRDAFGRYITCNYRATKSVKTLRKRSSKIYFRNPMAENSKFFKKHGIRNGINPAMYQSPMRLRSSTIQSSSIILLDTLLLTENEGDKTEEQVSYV

[3] = target: Substance-P receptor (Homo sapiens, UniProt P25103); type: cell membranes, CHO, Membrane; details: cho; further: in other assays of this panel Not Active means under 50% inhibition at 10 µM
Substance-P receptor, sequence (P25103 whole entry): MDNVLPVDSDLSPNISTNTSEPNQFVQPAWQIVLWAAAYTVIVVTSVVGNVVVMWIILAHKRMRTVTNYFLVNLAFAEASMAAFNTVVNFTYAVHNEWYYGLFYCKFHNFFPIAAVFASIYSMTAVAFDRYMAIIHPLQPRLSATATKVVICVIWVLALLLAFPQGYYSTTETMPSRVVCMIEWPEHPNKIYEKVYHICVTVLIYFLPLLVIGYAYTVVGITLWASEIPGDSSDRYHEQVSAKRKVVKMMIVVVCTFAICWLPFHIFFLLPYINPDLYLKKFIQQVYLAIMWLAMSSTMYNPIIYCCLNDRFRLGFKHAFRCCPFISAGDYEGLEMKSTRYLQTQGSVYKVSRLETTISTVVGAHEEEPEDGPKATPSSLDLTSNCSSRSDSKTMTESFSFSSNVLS

[4] = DRUGMATRIX: Glutamate, NMDA, Agonism radioligand binding (ligand: [3H] CGP-39653); type: cell membranes, Rattus norvegicus, Wistar, Cerebral cortex, Membrane; details: Not Active = under 50% inhibition at 10 µM
[5] = target: Histamine H2 receptor (Homo sapiens, UniProt P25021); type: cell membranes, CHO-K1, Membrane; details: cho-k1; further: in other assays of this panel Not Active means under 50% inhibition at 10 µM
Histamine H2 receptor, sequence (P25021 whole entry): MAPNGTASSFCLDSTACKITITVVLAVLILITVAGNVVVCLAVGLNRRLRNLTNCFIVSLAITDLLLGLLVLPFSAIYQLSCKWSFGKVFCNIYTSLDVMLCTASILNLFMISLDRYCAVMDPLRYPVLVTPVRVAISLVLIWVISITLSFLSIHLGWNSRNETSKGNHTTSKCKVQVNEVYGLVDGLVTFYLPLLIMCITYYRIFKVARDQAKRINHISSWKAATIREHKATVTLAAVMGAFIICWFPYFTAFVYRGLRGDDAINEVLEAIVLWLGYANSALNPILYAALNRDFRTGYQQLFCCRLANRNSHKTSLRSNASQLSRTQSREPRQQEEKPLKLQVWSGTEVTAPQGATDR

[6] = DRUGMATRIX: Interleukin IL-1 radioligand binding (ligand: [125I] interleukin 1beta); type: cell membranes, Membrane; details: nih3t3; Not Active = under 50% inhibition at 10 µM
[7] = target: T2, Leukotriene C4 synthase (Cavia porcellus, UniProt A6XA80); experiment: biochemical; type: tissue-based, Lung
T2 sequence (A6XA80 whole entry): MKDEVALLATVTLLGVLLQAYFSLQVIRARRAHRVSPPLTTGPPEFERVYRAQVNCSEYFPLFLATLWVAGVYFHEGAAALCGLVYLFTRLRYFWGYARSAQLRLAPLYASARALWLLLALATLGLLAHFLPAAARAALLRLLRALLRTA

[8] = DRUGMATRIX: Phosphodiesterase PDE3 enzyme inhibition (substrate: [3H]cAMP + cAMP); type: tissue-based, Homo sapiens; details: platelet; Not Active = under 50% inhibition at 10 µM
[9] = target: T3, Receptor-type tyrosine-protein phosphatase C (Homo sapiens, UniProt P08575); design: species or system Escherichia coli
T3 sequence (P08575 whole entry): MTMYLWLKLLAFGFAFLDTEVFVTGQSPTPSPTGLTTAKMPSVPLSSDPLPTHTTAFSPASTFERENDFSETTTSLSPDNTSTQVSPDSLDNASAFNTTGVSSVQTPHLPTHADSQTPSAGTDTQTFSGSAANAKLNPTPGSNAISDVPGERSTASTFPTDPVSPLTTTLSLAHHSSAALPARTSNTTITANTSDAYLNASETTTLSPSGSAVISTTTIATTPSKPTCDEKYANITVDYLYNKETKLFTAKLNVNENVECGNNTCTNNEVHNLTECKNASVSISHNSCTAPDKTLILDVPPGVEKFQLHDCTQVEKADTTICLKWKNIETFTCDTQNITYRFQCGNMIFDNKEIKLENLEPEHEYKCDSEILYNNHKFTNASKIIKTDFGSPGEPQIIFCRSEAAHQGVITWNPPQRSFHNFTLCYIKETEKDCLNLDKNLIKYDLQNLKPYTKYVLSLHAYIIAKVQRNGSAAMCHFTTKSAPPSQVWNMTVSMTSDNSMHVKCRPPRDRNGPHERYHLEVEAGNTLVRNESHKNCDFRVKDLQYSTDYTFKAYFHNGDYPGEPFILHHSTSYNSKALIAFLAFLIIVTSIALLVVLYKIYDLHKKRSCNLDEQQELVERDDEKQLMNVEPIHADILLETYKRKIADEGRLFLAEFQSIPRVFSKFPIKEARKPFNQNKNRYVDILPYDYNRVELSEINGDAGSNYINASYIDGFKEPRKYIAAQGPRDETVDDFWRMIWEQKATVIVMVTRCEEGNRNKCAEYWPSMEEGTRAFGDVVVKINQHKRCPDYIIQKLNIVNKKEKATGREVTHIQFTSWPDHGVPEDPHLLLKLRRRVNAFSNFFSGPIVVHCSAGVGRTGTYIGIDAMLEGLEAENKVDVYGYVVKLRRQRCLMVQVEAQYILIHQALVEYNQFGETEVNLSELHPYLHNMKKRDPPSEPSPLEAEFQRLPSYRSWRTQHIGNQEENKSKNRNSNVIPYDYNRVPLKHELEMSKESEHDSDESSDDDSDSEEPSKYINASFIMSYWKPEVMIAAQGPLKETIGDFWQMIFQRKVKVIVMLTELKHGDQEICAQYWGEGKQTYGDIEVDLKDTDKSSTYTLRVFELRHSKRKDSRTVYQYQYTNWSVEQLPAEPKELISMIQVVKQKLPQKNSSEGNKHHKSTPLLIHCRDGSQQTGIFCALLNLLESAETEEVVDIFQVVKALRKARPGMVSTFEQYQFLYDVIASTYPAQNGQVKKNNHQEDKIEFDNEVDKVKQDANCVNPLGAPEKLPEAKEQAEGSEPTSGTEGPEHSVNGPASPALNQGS

[10] = DRUGMATRIX: Purinergic P2X radioligand binding (ligand: [3H] alpha, beta-Methylene-ATP); type: cell membranes, Oryctolagus cuniculus, New Zealand albino, Urinary bladder, Membrane; details: Not Active = under 50% inhibition at 10 µM
[11] = target: T4, Cytochrome P450 2A6 (Homo sapiens, UniProt P11509); details: bti-tn-5b1-4; further: in other assays of this panel Not Active means under 50% inhibition at 10 µM
T4 sequence (P11509 whole entry): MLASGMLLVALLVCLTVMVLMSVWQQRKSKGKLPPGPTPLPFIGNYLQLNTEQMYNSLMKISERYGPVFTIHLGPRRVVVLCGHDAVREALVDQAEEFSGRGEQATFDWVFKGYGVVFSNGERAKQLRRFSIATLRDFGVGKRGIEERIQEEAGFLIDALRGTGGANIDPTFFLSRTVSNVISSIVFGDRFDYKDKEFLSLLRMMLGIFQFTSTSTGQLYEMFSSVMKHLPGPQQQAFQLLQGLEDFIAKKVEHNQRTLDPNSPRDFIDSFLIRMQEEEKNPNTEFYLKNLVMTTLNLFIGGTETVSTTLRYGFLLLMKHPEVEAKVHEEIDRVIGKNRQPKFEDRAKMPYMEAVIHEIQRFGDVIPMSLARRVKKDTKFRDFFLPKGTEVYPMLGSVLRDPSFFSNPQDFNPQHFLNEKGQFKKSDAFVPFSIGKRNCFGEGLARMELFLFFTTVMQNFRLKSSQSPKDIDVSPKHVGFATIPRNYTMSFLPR

C[C@]12Cc3c[nH]nc3C[C@@H]1CC[C@@H]1[C@@H]2CC[C@@]2(C)[C@H]1CC[C@]2(C)O [STANOZOLOL]
Not Active: IC50 [1] | IC50 [2] | IC50 [3] | IC50 [4] | Ki [4] | IC50 [5] | IC50 [6] | Ki [6] | IC50 [7] | IC50 [8] | Ki [8] | IC50 [9] | IC50 [10] | Ki [10] | IC50 [11] | Ki [11]

CN(N=O)C(=O)N[C@@H](C=O)[C@@H](O)[C@H](O)[C@H](O)CO [STREPTOZOCIN]
Not Active: IC50 [1] | IC50 [2] | IC50 [3] | IC50 [4] | Ki [4] | IC50 [5] | IC50 [6] | Ki [6] | IC50 [7] | IC50 [8] | Ki [8] | IC50 [9] | IC50 [10] | Ki [10] | IC50 [11] | Ki [11]

Cc1cc(NS(=O)(=O)c2ccc(N)cc2)no1 [SULFAMETHOXAZOLE]
Not Active: IC50 [1] | IC50 [2] | IC50 [3] | IC50 [4] | Ki [4] | IC50 [5] | IC50 [6] | Ki [6] | IC50 [7] | IC50 [8] | Ki [8] | IC50 [9] | IC50 [10] | Ki [10] | IC50 [11] | Ki [11]

Nc1ccc(S(N)(=O)=O)cc1 [SULFANILAMIDE]
Not Active: IC50 [1] | IC50 [2] | IC50 [3] | IC50 [4] | Ki [4] | IC50 [5] | IC50 [6] | Ki [6] | IC50 [7] | IC50 [8] | Ki [8] | IC50 [9] | IC50 [10] | Ki [10] | IC50 [11] | Ki [11]

Nc1ccc(S(=O)(=O)Nc2ccnn2-c2ccccc2)cc1 [SULFAPHENAZOLE]
Not Active: IC50 [1] | IC50 [2] | IC50 [3] | IC50 [4] | Ki [4] | IC50 [5] | IC50 [6] | Ki [6] | IC50 [7] | IC50 [8] | Ki [8] | IC50 [9] | IC50 [10] | Ki [10] | IC50 [11] | Ki [11]

C=CC[C@@H]1/C=C(\C)C[C@H](C)C[C@H](OC)[C@H]2O[C@@](O)(C(=O)C(=O)N3CCCC[C@H]3C(=O)O[C@H](/C(C)=C/[C@@H]3CC[C@@H](O)[C@H](OC)C3)[C@H](C)[C@@H](O)CC1=O)[C@H](C)C[C@@H]2OC [TACROLIMUS ANHYDROUS]
Not Active: IC50 [1] | IC50 [2] | IC50 [3] | IC50 [4] | Ki [4] | IC50 [5] | IC50 [6] | Ki [6] | IC50 [7] | IC50 [8] | Ki [8] | IC50 [9] | IC50 [10] | Ki [10] | IC50 [11] | Ki [11]
